Measurements published in US7879914B2, “Methods for treating viral infections using polyamine analogs” (Pathlogica LLC, priority 2005, dated 2011).
“Also recorded” adds a separate entry of the source. Like-named read-outs stand apart in the source and are kept apart here.

Experiments:
CD16+ monocytes = experiment: Killing of CD16+ monocytes by polyamine biosynthesis inhibitors (Example 6); assay type: cell-based, human; settings: for comparison of effectiveness of both PBIs: FIG. 6, 10 μM, five days
Procedure: Mononuclear cells were isolated from individuals with HIV infection, uninfected individuals or a patient with ALS and incubated in the absence or presence of increasing concentrations of the PBIs, MGBG (PA-001) and CG47. After five days in culture under non-adherent conditions cells were isolated stained with antibodies to CD14+ and CD16+ and counted by flow cytometry using a FACSCAN (BD-biosciences). The fraction of CD14+ monocytes that expressed CD16 was determined and compared to levels seen in the absence of drug.
Those samples that were relatively resistant to PBIs required 100 μM or more of drug to achieve similar levels of killing. […] Overall 65% to 80% of samples from individuals with HAND were sensitive (>70% killing with 10 μM PBI or less) to PBIs.
The overall results with mononuclear cells from HIV infected individuals, ALS patients, and healthy controls are shown in FIG. 6. […] The number of mononuclear cell samples evaluated in each category were as follows: ALS with PA-001 (MGBG)=6, and with CG47=28. Drug resistant HIV with PA-001=22, and with CG47=48. HAD with PA-001=9, and with CG47=5. Healthy with PA-001=24, and with CG47=15.

[1] = system: CD14/CD16+ blood macrophages from HIV positive patients; experiment: Susceptibility assay: killing of CD14/CD16+ blood macrophages from HIV patients; assay type: cell-based; settings: for EC50: Homo sapiens, Macrophage, advanced HIV disease, read-out: Mean ED50
Procedure: The following procedures/protocols were used in some of the examples that follow. All steps were performed in a biological safety cabinet using Universal Precautions for handling human blood samples and standard aseptic techniques.
Blood was drawn in heparinized tubes (green top Vacutainer tubes from Becton-Dickson) and Percol gradient separated into peripheral blood mononuclear cells (PBMCs), according to the following procedure. Aliquots of no more than 25 mL whole blood were transferred into clean, sterile, prelabeled 50 mL conical tubes. Using a sterile 25 mL pipet, equal volume of PBS (Mg^+2/Ca^+2 free) was added to the whole blood and the tubes were inverted 2 or 3 times. […] (For example: 10 mL whole blood +10 mL PBS.)
The diluted blood was slowly and carefully layered over the sterile Percol in amounts of 15-20 mL by holding the pipet at a 45 degree angle, relative to the Percol tube, and slowly dripping the diluted blood down the side of the tube. The resulting mixture was centrifuged at 2100 RPM for 30 minutes at 25° C. The buffy coat (i.e., the white layer between the yellow plasma on top and clear Percol solution below) so obtained was then slowly aspirated, taking care not to aspirate the Percol. The buffy coat was resuspended in sterile PBS (Mg^+2/Ca^+2 free) and the volume was brought up to 50 mL. The mixture was gently mixed by slowly pipetting up and down 3 times and the cell suspension was centrifuged at 1500 RPM for 10 minutes at 25° C. The supernatant was discarded and the bottom of the tube gently tapped to dislodge the cell pellet.
The PBMC for the susceptibility assays was prepared in accordance with the following procedures. A cell culture medium was prepared by mixing RPMI+10% FBS+1% sodium pyruvate and filter sterilized using a filter unit with 0.22 micron pore size. The cell pellet was then resuspended in 3 ml of the cell culture medium. The suspension was gently mixed by slowly pipetting up and down 3 times. The cells were counted using a hemacytometer and the cell density was adjusted to 1×10^6 cells/mL in the cell culture medium, followed by mixing by slowly pipetting up and down 3 times. The cells were incubated in a 50 mL sterile polypropylene tube, at 37° C. and 5% CO2 for 1-2 days. The cap was loosened and the tubes were tipped to 30-45 degrees relative to the tray surface. A styrofoam tube rack was used to hold the tubes.
The MGBG drug was prepared in accordance with the following procedures. A primary stock of MGBG was prepared by weighing out enough MGBG to make a 1 molar (M) solution and dissolved in sterile PBS (Mg^+2/Ca^+2 free). The solution was vortexed until all of the MGBG had dissolved. A secondary stock (0.01 M) was prepared from a 1/100 dilution of the primary stock and filter sterilized by passing the solution through a 0.22 micron filter. A working stock (0.001 M or 1,000 microMolar) was prepared from a 1/10 dilution of the secondary stock. The CG47 drug was prepared by an identical procedure.
Drug doses for the susceptibility assays were prepared in accordance with the following procedures. Drug dilutions were prepared at 10-fold higher concentrations than the final desired concentrations. For example a 100 microMolar drug solution was made for a desired final concentration of 10 microMolar. The drugs were diluted an additional 1/10 upon addition to the cell suspension (e.g., 0.1 mL drug +0.9 mL cell suspension). The drug doses for the susceptibility assays were prepared right before use in cell culture media.
Susceptibility assays were conducted in accordance with the following procedures. The MGBG drug as added 1-2 days after PBMC was separated from whole blood. […]

[2] = system: HIV DNA associated with CD14 cells; experiment: HIV DNA in isolated CD14 cells after ex vivo drug exposure, quantitative DNA PCR; assay type: cell-based
Procedure: Blood from patients with advanced HIV disease was Percol gradient separated into peripheral blood mononuclear cells (PBMCs) and 5 million cells from each specimen were exposed to a 1 μM concentration of MGBG or control saline for five days. […] After the five day incubation, CD14 immunomagnetic separation with a Miltenyi separation system was performed. Separated CD14 cells from treated and untreated control specimens were evaluated for the level of HIV DNA in each specimen. C-jun, single copy DNA controls were utilized in each specimen to provide the HIV DNA/genomic equivalent values as determined by quantitative DNA PCR analysis as described in Mack, K. D., et al. JAIDS (2003) 33: 308-20. […]
Blood from three patients with advanced HIV disease was Percol gradient separated into peripheral blood mononuclear cells (PBMC's) and 5 million cells from each specimen were exposed to a 10 micromolar concentration of the polyamine analog CG47 or control saline for 5 days. […] Separated CD14 cells from treated and untreated control specimens were evaluated for the level of HIV DNA in each specimen. C-jun, single copy DNA controls were utilized in each specimen to provide the HIV DNA/genomic equivalent values as determined by quantitative DNA PCR analysis as described in Mack et al. (JAIDS). […]

[3] = patients, Int. J. Cancer 26, 571 (1980); cited from earlier work

| Compound | changes in lymphocyte levels (CD16+ monocytes; 10 μM or less) | comparison of effectiveness of both PBIs (CD16+ monocytes) | killing of the CD14/CD16 blood macrophage population ([1]; 10 micromolar, 5 days, PBMCs of three patients with advanced HIV disease) [%] | sensitivity of CD14/CD16+ macrophages from the HIV patient ([1]; FIG. 4, ex vivo) | EC50 ([1]; CG47, mean of 13 patients) [nM] | reduction in HIV DNA associated with CD14 cells (average) ([2]; 10 micromolar, 5 days, three blood specimens) [%] | toxicity in an anti-cancer regimen [3] | killing of CD14/16+ cells that contain HIV DNA ([1]; 1 μM) | killing of the CD14/CD16 blood macrophage population ([1]; 1 μM, five days, PBMCs of patients with advanced HIV disease) [%] | killing of HIV infected macrophages, dose dependence ([1]; HIV positive patients, FIG. 1) | killing of HIV-infected macrophages from HAD patients ([1]; HIV-associated dementia (HAD) patients, compared with HIV positive) | EC50 ([1]; MGBG, mean of 10 patients) [nM] | reduction in HIV DNA associated with CD14 cells (average) ([2]; 1 μM, five days) [%] |
| --- | --- | --- | --- | --- | --- | --- | --- | --- | --- | --- | --- | --- | --- |
| CCNCCCNC/C=C\CNCCCNCC.Cl.Cl.Cl.Cl [CG47, N,N′-bis(3-ethylaminopropyl)-cis-but-2-ene-1,4-diamine tetrahydrochloride] | little or no changes | approximately equivalently effective | > 80 | extremely sensitive | 3500 | > 90 |  |  |  |  |  |  |  |
| CC(/C=N/NC(=N)N)=N\NC(=N)N [MGBG] |  | approximately equivalently effective |  |  |  |  | unacceptably toxic | Complete killing; also recorded: near quantitative | > 80 | dose-dependent | nearly as effective | 465 | > 99 |
